Results on 20 compounds are retold here after patent publication US8772343B2, “Chemical compounds” (Pfizer Limited, priority 2010, dated 2014).

Each structure is given as a SMILES string. Where a name gives a salt, the structure may show the parent alone.

For the first assay, the target named is T1, Nav1.7 (or SCN9A) channel (Homo sapiens, UniProt Q15858).
T1 construct: expressed in transfected cells
T1 sequence (Q15858 whole entry): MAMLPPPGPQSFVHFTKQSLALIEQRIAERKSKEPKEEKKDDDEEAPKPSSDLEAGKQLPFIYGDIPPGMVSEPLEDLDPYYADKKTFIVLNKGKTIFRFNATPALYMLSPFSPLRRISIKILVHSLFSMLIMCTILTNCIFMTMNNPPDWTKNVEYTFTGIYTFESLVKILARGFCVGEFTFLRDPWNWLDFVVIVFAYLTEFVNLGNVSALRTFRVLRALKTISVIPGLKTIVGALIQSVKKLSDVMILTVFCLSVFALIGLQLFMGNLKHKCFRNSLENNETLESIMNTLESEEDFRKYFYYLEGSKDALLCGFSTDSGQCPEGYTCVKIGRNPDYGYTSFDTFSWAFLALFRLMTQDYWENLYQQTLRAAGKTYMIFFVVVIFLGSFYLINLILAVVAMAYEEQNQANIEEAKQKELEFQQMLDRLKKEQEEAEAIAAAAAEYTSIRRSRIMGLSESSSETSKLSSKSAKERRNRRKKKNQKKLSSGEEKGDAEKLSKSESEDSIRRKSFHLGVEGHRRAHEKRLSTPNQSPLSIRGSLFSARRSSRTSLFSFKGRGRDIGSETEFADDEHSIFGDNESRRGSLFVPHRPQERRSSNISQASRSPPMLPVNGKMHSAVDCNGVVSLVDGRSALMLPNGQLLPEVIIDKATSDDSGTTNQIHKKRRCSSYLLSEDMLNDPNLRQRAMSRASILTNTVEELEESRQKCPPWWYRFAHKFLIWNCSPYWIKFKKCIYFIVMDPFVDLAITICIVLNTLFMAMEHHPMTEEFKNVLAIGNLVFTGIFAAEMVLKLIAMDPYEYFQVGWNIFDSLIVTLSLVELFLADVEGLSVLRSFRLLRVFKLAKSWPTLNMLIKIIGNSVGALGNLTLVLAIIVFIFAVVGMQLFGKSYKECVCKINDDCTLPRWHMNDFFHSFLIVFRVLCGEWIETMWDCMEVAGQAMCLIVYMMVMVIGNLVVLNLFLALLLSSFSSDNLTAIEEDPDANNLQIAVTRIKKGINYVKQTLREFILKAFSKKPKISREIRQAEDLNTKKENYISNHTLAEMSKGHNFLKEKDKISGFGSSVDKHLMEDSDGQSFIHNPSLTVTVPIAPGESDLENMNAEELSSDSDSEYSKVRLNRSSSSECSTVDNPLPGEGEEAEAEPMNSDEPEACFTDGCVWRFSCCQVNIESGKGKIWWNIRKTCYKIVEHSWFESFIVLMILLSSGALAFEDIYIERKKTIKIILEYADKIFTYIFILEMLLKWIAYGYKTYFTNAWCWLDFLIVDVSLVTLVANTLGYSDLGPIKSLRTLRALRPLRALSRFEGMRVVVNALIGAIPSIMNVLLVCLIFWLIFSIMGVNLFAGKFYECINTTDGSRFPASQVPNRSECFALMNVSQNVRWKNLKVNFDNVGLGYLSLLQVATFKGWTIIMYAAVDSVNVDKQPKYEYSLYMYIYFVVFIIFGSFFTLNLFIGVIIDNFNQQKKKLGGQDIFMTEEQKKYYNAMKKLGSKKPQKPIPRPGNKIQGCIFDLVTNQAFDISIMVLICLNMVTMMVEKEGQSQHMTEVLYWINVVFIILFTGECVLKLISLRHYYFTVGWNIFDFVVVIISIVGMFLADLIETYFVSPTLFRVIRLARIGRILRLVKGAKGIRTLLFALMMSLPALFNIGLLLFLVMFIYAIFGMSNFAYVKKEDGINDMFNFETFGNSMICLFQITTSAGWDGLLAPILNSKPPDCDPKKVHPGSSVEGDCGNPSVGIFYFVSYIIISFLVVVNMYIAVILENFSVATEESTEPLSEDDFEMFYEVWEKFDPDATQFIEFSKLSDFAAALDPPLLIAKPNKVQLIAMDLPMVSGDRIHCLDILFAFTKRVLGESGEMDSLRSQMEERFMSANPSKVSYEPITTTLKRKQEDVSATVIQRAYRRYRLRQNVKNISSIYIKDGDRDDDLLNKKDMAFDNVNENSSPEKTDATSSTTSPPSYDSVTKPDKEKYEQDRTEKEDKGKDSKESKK
The experiment in a line: Nav1.7 PatchXpress automated whole-cell electrophysiology in HEK cells expressing hSCN9A. It is filed as cell-based. As to conditions: estimated IC50 from single point data, PatchXpress assay, held at V1/2 of inactivation, read-out: Nav1.7 EIC50. The gist of the method: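 Stably transfected HEK cells recorded by whole-cell patch clamp (conventional or PatchXpress) at room temperature (22-24 °C) in pH 7.4 HEPES-buffered saline. Current evoked by a 20 msec step to 0 mV after an 8 s prepulse at the measured inactivation V1/2. Single-concentration % inhibition converted to estimated IC50 (EIC50); inhibition values <20% or >80% excluded.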
`COc1ncccc1-c1cc(C(=O)NS(C)(=O)=O)ccc1Oc1ccc(C(F)(F)F)cc1` [Example 87, 3-(2-methoxypyridin-3-yl)-N-(methylsulfonyl)-4-[4-(trifluoromethyl)phenoxy]benzamide]: the IC50 was 0.086 µM.

Take `COc1ncccc1-c1cc(C(=O)NS(C)(=O)=O)ccc1Oc1ccc(C#N)c(Cl)c1` [Example 88, 4-(3-chloro-4-cyanophenoxy)-3-(2-methoxypyridin-3-yl)-N-(methylsulfonyl)benzamide]: the IC50 is 2.5 µM. In the case of `CCc1cccc(Oc2ccc(C(=O)NS(C)(=O)=O)cc2-c2cccnc2OC)c1` [Example 89, 4-(3-ethylphenoxy)-3-(2-methoxypyridin-3-yl)-N-(methylsulfonyl)benzamide], the IC50 was 0.16 µM.

For the compound `COc1ncccc1-c1cc(C(=O)NS(C)(=O)=O)ccc1Oc1cncc(Cl)c1` [Example 90, 4-[(5-chloropyridin-3-yl)oxy]-3-(2-methoxypyridin-3-yl)-N-(methylsulfonyl)benzamide], the IC50 is 1.4 µM. `COc1ncccc1-c1cc(C(=O)NS(C)(=O)=O)ccc1Oc1ccc(F)cc1` [Example 91, 4-(4-fluorophenoxy)-3-(2-methoxypyridin-3-yl)-N-(methylsulfonyl)benzamide]: the IC50 was 0.68 µM. Still for that read-out and setting: for `COc1ncccc1-c1cc(C(=O)NS(C)(=O)=O)ccc1Oc1ccc(C(C)C)cc1` [Example 92, 4-(4-isopropylphenoxy)-3-(2-methoxypyridin-3-yl)-N-(methylsulfonyl)benzamide] the value was 0.038 µM; for `COc1ncccc1-c1cc(C(=O)NS(C)(=O)=O)ccc1Oc1ccc(OC(F)(F)F)cc1` [Example 93, 3-(2-methoxypyridin-3-yl)-N-(methylsulfonyl)-4-[4-(trifluoromethoxy)phenoxy]benzamide], 0.066 µM.

For the compound `COc1ncccc1-c1cc(C(=O)NS(C)(=O)=O)ccc1Oc1cnc(C2CC2)c(Cl)c1` [Example 94, 4-(5-chloro-6-cyclopropylpyridin-3-yloxy)-3-(2-methoxypyridin-3-yl)-N-(methylsulfonyl)benzamide], the IC50 is 0.4 µM. The same measure, in the same setting: for `CCc1cc(Oc2ccc(C(=O)NS(C)(=O)=O)cc2-c2ccn[nH]2)ccc1Cl` [Example 95, 4-(4-chloro-3-ethylphenoxy)-N-(methylsulfonyl)-3-(1H-pyrazol-5-yl)benzamide hydrochloride salt] the value was 0.1 µM.

For a further assay, the target named is T1, Nav1.7 (or SCN9A) channel. Put plainly: Nav1.7 Ionworks Quattro automated electrophysiology in HEK cells expressing hSCN9A. The format is cell-based. The conditions noted are these: estimated IC50, values marked (IW), Ionworks Quattro assay, read-out: Nav1.7 EIC50 (IW). As for the experimental part:
The ability of the compounds of formula (I) to block the Nav1.7 (or SCN9A) channel were measured using the assay described below. Human Embryonic Kidney (HEK) cells were transfected with an hSCN9A construct using lipofectamine reagent (Invitrogen), using standard techniques. Cells stably expressing the hSCN9A constructs were identified by their resistance to G-418 (400 μg/ml). Clones were screened for expression using the whole-cell voltage-clamp technique. HEK cells stably transfected with hSCN9A were maintained in DMEM medium supplemented with 10% heat-inactivated fetal bovine serum and 400 μg/ml G-418 in an incubator at 37° C. with a humidified atmosphere of 10% CO2. For HTS, cells were harvested from flasks by trypsinization and replated in an appropriate multi-well plate (typically 96 or 384 wells/plate) such that confluence would be achieved within 24 hours of plating. For electrophysiological studies, cells were removed from the culture flask by brief trypsinization and re-plated at low density onto glass cover slips. Cells were typically used for electrophysiological experiments within 24 to 72 hours after plating. Electrophysiological assays were also conducted using the Ionworks Quattro automated electrophysiological platform (Molecular Devices Corp). Intracellular and extracellular solutions were as described above with the following changes, 120 μg/ml amphotericin was added to the intracellular solution to perforate the membrane and allow electrical access to the cells. hSCN9A cells were grown and harvested as for PatchXpress and cells were resuspended in extracellular solution at a concentration of 1×10^6 cells/ml. The onboard liquid handling facility of the Ionworks Quattro was used for dispensing cells and application of test compounds. A voltage protocol was then applied that comprised of a voltage step to fully inactivate the sodium channels, followed by a brief hyperpolarized recovery period to allow partial recovery from inactivation for unblocked sodium channels, followed by a test depolarized voltage step to assess magnitude of inhibition by test compound. Compound effect was determined based on current amplitude difference between the pre-compound addition and post-compound addition scans. Compounds of the Examples were tested in the assays described above and found to have the Nav1.7 EIC50 (uM) values specified in the table below. All data are derived from the PatchXpress assay unless expressly stated otherwise.
As to `CS(=O)(=O)NC(=O)c1ccc(Oc2ccc(Cl)cc2)c(-c2cccc(C(F)(F)F)c2)c1` [Example 13, 6-(4-chlorophenoxy)-N-(methylsulfonyl)-3′-(trifluoromethyl)biphenyl-3-carboxamide], the IC50 was 24 µM. Take `CS(=O)(=O)NC(=O)c1ccc(Oc2ccc(Cl)cc2)c(-c2cccc(F)c2)c1` [Example 17, 6-(4-chlorophenoxy)-3′-fluoro-N-(methylsulfonyl)-biphenyl-3-carboxamide]: the IC50 was 13 µM. The same measure, in the same setting: then `CS(=O)(=O)NC(=O)c1ccc(Oc2ccc(Cl)cc2)c(-c2cccnc2)c1` [Example 19, 4-(4-chlorophenoxy)-N-(methylsulfonyl)-3-pyridin-3-ylbenzamide], with 28 µM; and `CS(=O)(=O)NC(=O)c1ccc(Oc2ccc(Cl)cc2)c(-c2cccc(Cl)c2)c1` [Example 22, 3′-chloro-6-(4-chlorophenoxy)-N-(methylsulfonyl)-biphenyl-3-carboxamide], with 15 µM. On the same count and under the same terms, then `CS(=O)(=O)NC(=O)c1ccc(Oc2ccc(Cl)cc2)c(-c2ccc(C#N)cc2)c1` [Example 25, 6-(4-chlorophenoxy)-4′-cyano-N-(methylsulfonyl)-biphenyl-3-carboxamide], with 10 µM. Turning to `CS(=O)(=O)NC(=O)c1ccc(Oc2ccc(Cl)cc2)c(-c2cccc(C#N)c2)c1` [Example 26, 6-(4-chlorophenoxy)-3′-cyano-N-(methylsulfonyl)-biphenyl-3-carboxamide], the IC50 is 17 µM. Turning to `CS(=O)(=O)NC(=O)c1ccc(Oc2ccc(Cl)cc2)c(-c2cccc(OC(F)(F)F)c2)c1` [Example 28, 6-(4-chlorophenoxy)-N-(methylsulfonyl)-3′-(trifluoromethoxy)biphenyl-3-carboxamide], the IC50 is 16 µM. The same measure, in the same setting: then `CS(=O)(=O)NC(=O)c1ccc(Oc2ccc(Cl)cc2)c(-c2cn[nH]c2)c1` [Example 30, 4-(4-chlorophenoxy)-N-(methylsulfonyl)-3-(1H-pyrazol-4-yl)benzamide], with 18 µM; and `COc1ncc(-c2cc(C(=O)NS(C)(=O)=O)ccc2Oc2ccc(Cl)cc2)cn1` [Example 40, 4-(4-chlorophenoxy)-3-(2-methoxypyrimidin-5-yl)-N-(methylsulfonyl)benzamide], with 69 µM; and `CS(=O)(=O)NC(=O)c1ccc(Oc2ccc(Cl)cc2)c(-c2cncc(C#N)c2)c1` [Example 44, 4-(4-chlorophenoxy)-3-(5-cyanopyridin-3-yl)-N-(methylsulfonyl)benzamide], with 17 µM. Regarding `Cc1ncc(-c2cc(C(=O)NS(C)(=O)=O)ccc2Oc2ccc(Cl)cc2)cn1` [Example 46, 4-(4-chlorophenoxy)-3-(2-methylpyrimidin-5-yl)-N-(methylsulfonyl)benzamide], the IC50 is 151 µM.
